Measured values from ChEMBL document CHEMBL3596180, “Evaluation of histone deacetylase inhibitors (HDACi) as therapeutic leads for human African trypanosomiasis (HAT)” (Bioorg Med Chem, 2015).
One block for each molecule: values may come before it. Active and inactive are the calls of the source. No cut-off for these calls is given here.

Experiments:
[1] = system: Trypanosoma brucei brucei; test: Antitrypanosomal activity against Trypanosoma brucei brucei 427 assessed as inhibition of parasite proliferation measured as ATP levels after 48 hrs by luciferase-based assay; assay type: functional, organism-based; details: Trypanosoma brucei, 427, 48 h
[2] = Tmax in po dosed human measured under phase 1 trial; assay type: ADME, organism-based; details: in vivo
[3] = Cmax in po dosed human measured under phase 1 trial; assay type: ADME, organism-based; set-up: route oral; details: in vivo
[4] = Cmax in iv dosed human measured under phase 1 trial; assay type: ADME, organism-based; set-up: route intravenous; details: in vivo
[5] = Tmax in iv dosed human measured under phase 1/2 trial; assay type: ADME, organism-based; details: in vivo
[6] = Half-life in iv dosed human measured under phase 1 trial; assay type: ADME, organism-based; details: in vivo
[7] = AUC in po dosed human measured under phase 1 trial; assay type: ADME, organism-based; details: in vivo
[8] = system: Trypanosoma brucei brucei; test: Trypanocidal activity against Trypanosoma brucei brucei assessed as killing of parasite densities of 10^4 to 10^6 cells/ml at 180 uM after 4 hrs by clonal dilution method; assay type: functional, organism-based
[9] = Tmax in iv dosed human measured under phase 1 trial; assay type: ADME, organism-based; details: in vivo
[10] = AUC in iv dosed human measured under phase 1/2 trial; assay type: ADME, organism-based; details: in vivo
[11] = system: Trypanosoma brucei brucei; test: Trypanocidal activity against Trypanosoma brucei brucei assessed as killing of parasite densities of 10^4 to 10^6 cells/ml at 2 uM after […] by clonal dilution method; assay type: functional, organism-based
[12] = Cmax in iv dosed human measured under phase 1/2 trial; assay type: ADME, organism-based; set-up: route intravenous; details: in vivo
[13] = Half-life in po dosed human measured under phase 1 trial; assay type: ADME, organism-based; details: in vivo
[14] = AUC in iv dosed human measured under phase 1 trial; assay type: ADME, organism-based; details: in vivo
[15] = Half-life in iv dosed human measured under phase 1/2 trial; assay type: ADME, organism-based; details: in vivo

EC50 [1]: 6.55 µM
Compound: CC(C)(CCc1ccccc1)C(=O)Nc1ccc(C(=O)NO)cc1

EC50 [1]: 0.892 µM
Compound: O=C(Nc1ccccc1-c1cn2c(CN3CCNCC3)csc2n1)c1cnc2ccccc2n1

EC50 [1]: 7 µM
Compound: O=C(/C=C\c1cccc(C(=O)NO)c1)NO

EC50 [1]: 8.61 µM
Compound: CN(C)Cc1c(C(=O)NCCOc2ccc(C(=O)NO)cc2)oc2ccccc12 [ABEXINOSTAT]

Tmax [2]: 1.9 h
Cmax [3]: 2140 nM
Cmax [4]: 101000 nM
Tmax [5]: 0.45 h
half-life [6]: 0.69 h
AUC [7]: 2700 ng·h/mL
EC50 [1]: 2.15 µM
EC90 [1]: 4.01 µM
Tmax [9]: 0 h
AUC [10]: 47500 ng·h/mL
Cmax [12]: 183000 nM
half-life [13]: 1.5 h
AUC [14]: 9990 ng·h/mL
half-life [15]: 3.49 h
Compound: O=C(/C=C/c1cccc(S(=O)(=O)Nc2ccccc2)c1)NO [BELINOSTAT]
Activity [8]: inactive
Activity [11]: inactive

Cmax [4]: 2170 nM
half-life [6]: 8.29 h
EC50 [1]: 2.6 µM
Tmax [9]: 2 h
AUC [14]: 2310 ng·h/mL
Compound: O=C(/C=C/c1ccc(CN(CCO)CCc2c[nH]c3ccccc23)cc1)NO [DACINOSTAT]

Tmax [2]: 2.1 h
Cmax [3]: 208 nM
AUC [7]: 671 ng·h/mL
EC50 [1]: 10.9 µM
half-life [13]: 6 h
Compound: CCN(CC)Cc1ccc2cc(COC(=O)Nc3ccc(C(=O)NO)cc3)ccc2c1 [GIVINOSTAT]

EC50 [1]: 4.06 µM
Compound: O=C(/C=C/C#Cc1ccc(NS(=O)(=O)c2ccccc2)cc1)NO [OXAMFLATIN]
